For one experiment, the target named is T1, human 17βHSD type 1 (Homo sapiens, UniProt P14061).
T1 construct: made in house; expressing system suspended in buffer, not purified
T1 sequence (P14061 1-328): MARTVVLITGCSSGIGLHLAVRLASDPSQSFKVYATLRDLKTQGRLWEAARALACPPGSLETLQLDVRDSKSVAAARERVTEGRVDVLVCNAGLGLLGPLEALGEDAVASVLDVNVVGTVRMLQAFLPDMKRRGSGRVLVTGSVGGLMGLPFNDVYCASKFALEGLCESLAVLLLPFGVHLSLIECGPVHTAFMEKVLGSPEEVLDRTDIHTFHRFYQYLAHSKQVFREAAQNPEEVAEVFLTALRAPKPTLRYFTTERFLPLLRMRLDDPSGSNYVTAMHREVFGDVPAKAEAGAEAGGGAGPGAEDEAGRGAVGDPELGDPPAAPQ
The experiment in a line: Inhibition of recombinant 17βHSD type 1, tritium-labeled substrate conversion. In kind it is biochemical. As to conditions: for inhibition at 0.1 µM: 0.1 μmol · l^−1 test substance; for inhibition at 0.1 µM / inhibition at 1 µM: read-out: % of inhibition of human 17βHSD1; for inhibition at 1 µM: 1 μmol · l^−1 test substance. The protocol:
(§1) The inhibitory activity of the test substances was determined for individual isoenzymes from the 17βHSD family, specifically these were the types 1, 2, 3, 4, 5 and 7. Escherichia coli and mammalian cells expression systems were used for recombinant expression of individual isozymes of human 17βHSD. Only in the case of 17HSD5 the enzyme was partially purified and supernatant obtained by centrifugation of the bacterial lysate was used for testing. Systems expressing specific 17βHSD type were suspended in a reaction buffer and incubated with tritium-labeled substrates and respective cofactors at 37° C. in two parallel tests: the control arrangement (DMSO without the inhibitor) and the test arrangement (DMSO with the inhibitor). DMSO serves as a negative control in this case. After 20-30% of the substrate was converted by the activity of the enzyme to the product in a control test, both tests were terminated. Substrate and product from the test arrangement were isolated by SPE (solid phase extraction), and then separated by reverse phase HPLC. Substrate conversion was determined by integration of the signals of the substrate and product, and was expressed in %. For the purposes of the subsequent calculation of enzyme inhibition, the conversion of the control test was designated as 0% inhibition. All tests were performed in triplicates. IC50 values were subsequently determined by a standard method using the “One Ligand Binding” model of SigmaPlot kinetics module (Schustera et. al. J. Ster. Biochem. Mol. Biol. 2011, 125, 148; Möller et. al. Biioorg. Med. Chem. Lett. 2009, 19, 6740; Möller et. al. PLoS One, 2010, 5, 6, e10969).

A further experiment concerns U2OS cells. Nature of the experiment: Cell viability (ATP) of unmodified U2OS cells, parallel to reporter assay. In kind it is cell-based, human. As to conditions: Homo sapiens. The protocol: To separate the antagonist activity of test compounds from the cytotoxic effect on U2OS cells (cell line derived from osteosarcoma), an experiment for determination of cell viability was performed in parallel with the reporter assay. Original, genetically unmodified U2OS cells were grown under the same conditions as the reporter cells. These cells were further treated and incubated with the compounds in a completely identical manner and for the same time as cells in the reporter assay. At the end of the experiment, the amount of ATP was determined using BriteLite luciferase homogeneous assay as a measure of cell viability. The data were then processed together with data from the reporter assays.

A further experiment concerns DU145. The experiment in a line: 7 day proliferation assay, DU145. Format: cell-based. As to conditions: 1 μmol·l^−1, 7 days. The protocol:
(§2) In this study, T47D cells were propagated in RPMI 1640 medium supplemented with 10% fetal bovine serum, 2 mmol^·l^−1 glutaMAX (Thermo Fisher Scientific, MA, USA), and penicillin/streptomycin (Thermo Fisher Scientific, Waltham, USA) and incubated in a 5% CO2-humidified atmosphere at 37° C. to the amount needed for the experiment. Two days prior to testing of compounds, growth medium was changed to medium without phenol red, supplemented with 2 mmol^·l^−1 Glutamax and 4% FBS depleted of lipophilic components (including the endogenous estrogenic substances) (Hyclone, GE Healthcare Life Sciences, USA). Two days after the medium replacement, the cells were harvested, counted and resuspended in a medium. Cells were dispensed with liquid dispenser Multidrop (Thermo Fisher Scientific, Waltham, USA), to the cell culture treated, 12-well plates (Corning Inc., NY, USA) at 100 000 cells/well in 1 mL of total media volume. […] After 7 days of cell cultivation with compounds, cells were harvested and counted. […]
(§3) Compounds 9 and 12 were tested in the proliferation assay with cell lines derived from the triple negative breast cancer (MDA-MB-231), AR-negative prostate cancer (PC3, DU145) and ovarian cancer (SK-OV-3, CaoV-3). […] At the end of the treatment, cells were harvested and counted. […]

In the next experiment the test system is CaOV-3. Nature of the experiment: 7 day proliferation assay, CaOV-3. In kind it is cell-based. As to conditions: 1 μmol·l^−1, 7 days. The protocol: as §2, §3
A further experiment addresses T2, human 17βHSD type 5 (Homo sapiens, UniProt P42330).
T2 construct: made in house; host or cells: bacteria (Escherichia coli); supernatant of the lysate
T2 sequence (P42330 1-323): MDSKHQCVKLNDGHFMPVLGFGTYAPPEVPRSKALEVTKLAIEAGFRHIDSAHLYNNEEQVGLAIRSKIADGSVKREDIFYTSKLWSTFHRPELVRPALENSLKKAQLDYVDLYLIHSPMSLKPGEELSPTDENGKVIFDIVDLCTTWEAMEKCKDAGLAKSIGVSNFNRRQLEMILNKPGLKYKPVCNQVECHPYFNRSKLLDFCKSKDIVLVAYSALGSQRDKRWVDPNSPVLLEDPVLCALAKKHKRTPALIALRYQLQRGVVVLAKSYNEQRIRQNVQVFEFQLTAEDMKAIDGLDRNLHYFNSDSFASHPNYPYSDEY
The experiment in a line: Inhibition of recombinant 17βHSD type 5, tritium-labeled substrate conversion. As to conditions: 1 μmol · l^−1 test substance. In kind it is biochemical. The protocol:
as §1

The target of experiment [1] is T3, progesterone receptor (PR) (Homo sapiens, UniProt P06401).
T3 construct: expressed in transfected cells
T3 sequence (P06401 whole entry): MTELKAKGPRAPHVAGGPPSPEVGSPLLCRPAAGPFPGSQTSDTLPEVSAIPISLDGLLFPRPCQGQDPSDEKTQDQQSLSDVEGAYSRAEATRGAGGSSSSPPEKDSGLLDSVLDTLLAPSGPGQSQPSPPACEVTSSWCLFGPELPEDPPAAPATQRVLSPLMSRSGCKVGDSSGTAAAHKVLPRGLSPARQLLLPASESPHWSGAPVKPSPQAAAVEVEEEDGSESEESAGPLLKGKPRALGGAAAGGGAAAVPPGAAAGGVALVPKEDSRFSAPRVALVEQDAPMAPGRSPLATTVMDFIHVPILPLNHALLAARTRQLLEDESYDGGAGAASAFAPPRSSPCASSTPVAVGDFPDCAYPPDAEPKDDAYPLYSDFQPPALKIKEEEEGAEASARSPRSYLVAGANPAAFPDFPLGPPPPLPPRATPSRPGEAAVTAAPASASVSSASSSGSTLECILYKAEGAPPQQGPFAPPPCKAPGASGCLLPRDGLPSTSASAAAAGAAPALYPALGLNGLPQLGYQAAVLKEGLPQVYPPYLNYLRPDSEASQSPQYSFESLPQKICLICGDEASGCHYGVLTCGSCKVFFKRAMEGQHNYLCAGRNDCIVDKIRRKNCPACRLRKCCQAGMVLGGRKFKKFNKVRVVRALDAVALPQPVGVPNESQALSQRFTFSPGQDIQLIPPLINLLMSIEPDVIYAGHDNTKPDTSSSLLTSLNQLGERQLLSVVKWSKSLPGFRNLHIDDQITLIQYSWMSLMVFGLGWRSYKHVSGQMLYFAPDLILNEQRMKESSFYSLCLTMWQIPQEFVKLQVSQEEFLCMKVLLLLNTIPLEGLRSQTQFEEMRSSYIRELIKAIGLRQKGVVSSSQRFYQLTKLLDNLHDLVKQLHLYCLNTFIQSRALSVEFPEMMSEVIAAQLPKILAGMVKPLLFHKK
Nature of the experiment: PR luciferase reporter assay in U2OS cells. Format: cell-based. As to conditions: read-out: ANTAGONIST mode PR IC50.

The next experiment relates to PC3. Nature of the experiment: 7 day proliferation assay, PC3. In kind it is cell-based. As to conditions: 1 μmol·l^−1, 7 days. As to the method:
as §2, §3

The results in this text go back to patent publication US10759826B2, “15β-substituted estrone derivatives as selective inhibitors of 17β-hydroxysteroid-dehydrogenases, method of preparation and use thereof” (USTAV ORGANICKE CHEMIE A BIOCHEMIE AV CR, V.V.I., priority 2016, dated 2020).

pIC50: −log10 of the molar value. A value given as a limit tells only on which side of the number the result lay.

Consider `COc1ccc(CC[C@@H]2CC(=O)[C@@]3(C)CC[C@@H]4c5ccc(O)cc5CC[C@H]4[C@H]23)cc1` [Compound 9, 3-Hydroxy-15β-(4-methoxyphenethyl)-estra-1,3,5 (10)-trien-17-one], for which, at human 17βHSD type 1, the inhibition at 0.1 µM came to 91%. For the same compound, at human 17βHSD type 1, the inhibition at 1 µM worked out at 100%. Besides, the negative logarithm of the IC50 (pIC50) on human 17βHSD type 1 (read-out: 17βHSD1 IC50) is 8.00; with U2OS cells it was under 4.00; in experiment [1] it was 4.87. For the same compound, the “% of survived cells compared to untreated samples, DU145” value with DU145 was determined as 98%. In the experiment on CaOV-3, the “% of survived cells compared to untreated samples, CaOV-3” value is given as 94%. The “% of inhibition of human 17βHSD5” value at human 17βHSD type 5 was 91%. Besides, the “% of survived cells compared to untreated samples, PC3” value in the experiment with PC3 worked out at 96%.

Take `CCOc1ccc(CC[C@@H]2CC(=O)[C@@]3(C)CC[C@@H]4c5ccc(O)cc5CC[C@H]4[C@H]23)cc1` [Compound 12, 15β-(4-Ethoxyphenethyl)-3-hydroxy-estra-1,3,5(10)-trien-17-one]: at human 17βHSD type 1, the inhibition at 0.1 µM was 85% and the inhibition at 1 µM was found to be 88%. This compound gave a negative-log IC50 (pIC50) in the experiment on U2OS cells of under 4.00. Also, the “% of survived cells compared to untreated samples, DU145” value in the experiment on DU145 was 86%. Further, the “% of survived cells compared to untreated samples, CaOV-3” value in the experiment on CaOV-3 is given as 88%. Besides, the “% of inhibition of human 17βHSD5” value on human 17βHSD type 5 was 80%. In experiment [1], the pIC50 was 4.86. The “% of survived cells compared to untreated samples, PC3” value in the experiment with PC3 came to 98%.
